Data taken from patent US20220071952A1, “METHODS OF TREATING AND PREVENTING HEPATOTOXICITY” (Natreon, Inc., priority 2020, published 2022).
Where “and” joins values, the source holds several entries; their conditions need not be identical. Identical values can stand only once.

Legend:
[1] = tested on: CCl4-induced hepatotoxicity in mice; assay: Carbon tetrachloride (CCl4)-induced hepatotoxicity in mice, serum biochemical parameters (Example II); assay type: in vivo, Swiss albino mice; conditions: for ALT / AST / MDA / Total Bilirubin / Total Protein: 10 mg/kg p.o. 7 days + CCl4 (30%) 1 ml/kg i.p., serum, mean ± SD, n=6
Experimental: Swiss albino mice of both sexes, weighing approximately 25-30 g, were obtained from National Research Institute of Ayurveda for Drug Development (Govt. of India), Kolkata, and were housed in polypropylene cages at 22±3° C., relative air humidity of 45 to 55%, with 12.00 hr light and dark cycle (lighting on from 6:00 AM to 6:00 PM) and were provided standard pellet chow (carbohydrate 65.5%, protein 17.6%, fat 6.6%) and distilled water ad libitum. The mice were acclimatized for one week in the laboratory conditions before being used in the experiment. All experiments were conducted between 10.00 hr and 14.00 hr. Principles of laboratory animals care (NIH publication no. 85-23, revised 1985) were followed.

[2] = tested on: alcohol-induced hepatotoxicity in mice; assay: Alcohol (ethanol)-induced hepatotoxicity in mice, biochemical and physical parameters (Example III); assay type: in vivo, Swiss Albino mice; conditions: for Relative organ weight (w.r.t body weight) Kidney / Relative organ weight (w.r.t body weight) Liver / ACP / ALP / ALT(SGPT) / AST(SGOT) / Total Protein: 10 mg/kg p.o. + alcohol 5 g/kg p.o. twice daily, mean ± SD; for ACP / ALP / ALT(SGPT) / AST(SGOT) / Total Protein: plasma
Experimental: Swiss Albino male and female mice weighing approximately 30±5 g, 2 month old mice were obtained from National Research Institute of Ayurveda for Drug Development (Govt. of India), Kolkata, and were housed in polypropylene cages at 22±3° C., relative air humidity of 45 to 55%, with 12.00 hr light & dark cycle (lighting on from 6:00 AM to 6:00 PM). Mice were provided a standard pellet chow diet (carbohydrate 65.5%, protein 17.6%, fat 6.6%) and distilled water ad libitum. The mice were acclimatized for one week in the laboratory conditions, before being used in the experiment. All experiments were conducted between 10.00 hr and 14.00 hr. Principles of laboratory animals care (NIH publication no. 85-23, revised 1985) were followed.
In the present study simultaneous administration of alcohol (ethanol) and treatment with 3-OH-DBP and 3,8-(OH)2-DBP was done.
Vehicle control animals (“Con Veh”) were administered 0.3% CMC orally for 15 days.
Animals receiving ethanol (“Alc+0.3 CMC”, “3-OH-DBP+Alc”, “3,8-(OH)2-DBP+Alc”) were administered ethanol in 0.3% CMC orally as discussed above.
Results were expressed in terms of mean±SD (n=8). The data were subjected to one way ANOVA followed by Tukey's test using GraphPad Prism 4.0 software to establish statistical significance (*p<0.05, **p<0.01, ***p<0.001 vs. vehicle control; # p<0.05, ## p<0.01, ### p<0.001 vs. animals administered ethanol only).

[3] = tested on: paracetamol-induced hepatotoxicity in mice; assay: Synergistic hepatoprotective activity of DBPs against paracetamol-induced hepatotoxicity (Example IV); assay type: in vivo; conditions: for ACP / ALP / ALT / AST / Total Protein: paracetamol 200 mg/kg, mean ± SEM, n=4
[4] = tested on: alcohol-induced hepatotoxicity in mice; assay: Synergistic hepatoprotective activity of DBPs against alcohol-induced hepatotoxicity (Example IV); conditions: for ACP / ALP / ALT / AST / Total Protein: alcohol 5 g/kg, mean ± SEM, n=4
Experimental: Hepatotoxicity was induced by oral administration of alcohol (ethanol: 5 g/kg) from stock 400 mg/ml twice daily for 15 days.
3-OH-DBP and 3,8-(OH)2-DBP were each separately suspended in 0.3% CMC and administered at a dose of 10 mg/kg body weight per orally for 15 days. During the 15 days treatment, body weight, food intake, and water intake were monitored at regular intervals. Following 15 days of treatment physical parameters (relative organ weight) and biochemical parameters (plasma total protein content, ALT, AST, ALP, and ACP) were studied.
3-OH-DBP (2 mg/kg body weight, 10 mg/kg body weight);
3,8-(OH)2-DBP (10 mg/kg body weight, 50 mg/kg body weight); and

[5] = female mice (Table 14), 10 mg/kg p.o.
[6] = male mice (Table 13), 10 mg/kg p.o.
[7] = female mice, doses 3-OH-DBP 2, 3,8-(OH)2-DBP 10, 1:5 combination 12 mg/kg b.w.
[8] = female mice, doses 3-OH-DBP 10, 3,8-(OH)2-DBP 50, 1:5 combination 60 mg/kg b.w.
[9] = male mice, doses 3-OH-DBP 2, 3,8-(OH)2-DBP 10, 1:5 combination 12 mg/kg b.w.
[10] = male mice, doses 3-OH-DBP 10, 3,8-(OH)2-DBP 50, 1:5 combination 60 mg/kg b.w.
[11] = female mice, doses 3-OH-DBP 2, 3,8-(OH)2-DBP 10, combination 12 mg/kg b.w.
[12] = female mice, doses 3-OH-DBP 10, combination 60 mg/kg b.w.

Compound: O=c1oc2cc(O)ccc2c2ccccc12 [3-OH-DBP, 3-hydroxy-dibenzo-alpha-pyrone]
- effect on CCl4-induced hepatotoxicity (ALT, AST, bilirubin, total protein vs CCl4 group) ([1]; 10 mg/kg p.o., mice): significantly attenuated and reversed the CCl4-induced hepatotoxicity
- effect on CCl4-induced lipid peroxidation (MDA) ([1]; 10 mg/kg p.o., mice): significantly lowered CCl4-induced lipid peroxidation
- ALT ([1]; female mice): 67.34 ± 12.07 IU/L
- AST ([1]; female mice): 17.48 ± 5.67 IU/L
- MDA ([1]; female mice): 8.13 ± 0.167 nmol/mL
- Total Bilirubin ([1]; female mice): 0.53 ± 0.21 mg/dL
- Total Protein ([1]; female mice): 3.92 ± 0.88 g/dL
- ALT ([1]; male mice): 58.21 ± 6.79 IU/L
- AST ([1]; male mice): 12.33 ± 3.29 IU/L
- Total Bilirubin ([1]; male mice): 0.50 ± 0.23 mg/dL
- Total Protein ([1]; male mice): 0.00355 ± 0.00031 g/dL
- MDA ([1]; male mice, 10 mg/kg): 7.04 nmol/mL and 7.04 ± 0.09 nmol/mL
- hepatoprotective activity against carbon tetrachloride-induced liver damage ([1]; males and females, 10 mg/kg p.o.): significant hepatoprotective activity
- hepatoprotective activity against alcohol-induced hepatotoxicity ([2]; 10 mg/kg p.o., 15 days): significant hepatoprotective activity
- effect on alcohol-induced increased plasma ACP [2, 5]: significantly (p<0.05) attenuated
- effect on alcohol-induced increased plasma ALT [2, 5]: significantly (p<0.001) attenuated
- effect on alcohol-induced increased plasma AST [2, 5]: significantly (p<0.05; p<0.01) attenuated
- effect on plasma ALP level compared with ALC group [2, 5]: significantly (p<0.05) decreased
- Relative organ weight (w.r.t body weight) Kidney ([2]; female mice, 15 days): 0.013 ± 0.001^
- Relative organ weight (w.r.t body weight) Liver ([2]; female mice, 15 days): 0.052 ± 0.011^
- ACP ([2]; female mice, 15 days): 5.58 ± 2.19^# IU/L
- ALP ([2]; female mice, 15 days): 32.95 ± 13.06^# IU/L
- ALT(SGPT) ([2]; female mice, 15 days): 6.72 ± 2.88^## IU/L
- AST(SGOT) ([2]; female mice, 15 days): 6.19 ± 1.94^# IU/L
- Total Protein ([2]; female mice, 15 days): 2.75 ± 0.167 g/dL
- effect on alcohol-induced increased plasma ACP [2, 6]: significantly (p<0.05) attenuated
- effect on alcohol-induced increased plasma ALT [2, 6]: significantly (p<0.05) attenuated
- effect on alcohol-induced increased plasma AST [2, 6]: significantly (p<0.05) attenuated
- Relative organ weight (w.r.t body weight) Kidney ([2]; male mice, 15 days): 0.014 ± 0.001
- Relative organ weight (w.r.t body weight) Liver ([2]; male mice, 15 days): 0.044 ± 0.001
- ACP ([2]; male mice, 15 days): 5.36 ± 2.34^# IU/L
- ALP ([2]; male mice, 15 days): 20.20 ± 6.18^# IU/L
- ALT(SGPT) ([2]; male mice, 15 days): 11.93 ± 4.364^# IU/L
- AST(SGOT) ([2]; male mice, 15 days): 5.83 ± 1.75^# IU/L
- Total Protein ([2]; male mice, 15 days): 2.75 ± 0.167 g/dL
- ACP, difference in values from paracetamol treated mice [3, 7]: A = (a-b = 4) U/L
- ALP, difference in values from paracetamol treated mice [3, 7]: A = (a-b = 21) IU/L
- ALT, difference in values from paracetamol treated mice [3, 7]: A = (a-b = 15) IU/L
- AST, difference in values from paracetamol treated mice [3, 7]: A = (a-b = 45) IU/L
- ACP, difference in values from paracetamol treated mice [3, 8]: D = (a-e = 7.6) U/L
- ALP, difference in values from paracetamol treated mice [3, 8]: D = (a-e = 26) IU/L
- ALT, difference in values from paracetamol treated mice [3, 8]: D = (a-e = 36) IU/L
- AST, difference in values from paracetamol treated mice [3, 8]: D = (a-e = 71) IU/L
- ACP [3, 7]: 12 ± 0.71***(b) U/L
- ALP [3, 7]: 77 ± 11***(b) IU/L
- ALT [3, 7]: 71 ± 9**(b) ^ IU/L
- AST [3, 7]: 98 ± 10**(b) IU/L
- Total Protein [3, 7]: 6.2 ± 0.16 g/dL
- ACP [3, 8]: 8.4 ± 1.2^#(e) ^ U/L
- ALP [3, 8]: 72 ± 6.9**(e) IU/L
- ALT [3, 8]: 50 ± 9.8*,^#(e) IU/L
- AST [3, 8]: 72 ± 6*,^#(e)^ IU/L
- Total Protein [3, 8]: 6.2 ± 0.02 g/dL
- Relative liver weight ([3]; male and female mice, paracetamol study of Example IV): significantly (p<0.01) increased
- ACP, difference in values from paracetamol treated mice [3, 9]: A = (a-b = 8.5) U/L
- ALP, difference in values from paracetamol treated mice [3, 9]: A = (a-b = 38.33) IU/L
- ALT, difference in values from paracetamol treated mice [3, 9]: A = (a-b = 7.29) IU/L
- AST, difference in values from paracetamol treated mice [3, 9]: A = (a-b = 30.67) IU/L
- ACP, difference in values from paracetamol treated mice [3, 10]: D = (a-e = 5.44) U/L
- ALP, difference in values from paracetamol treated mice [3, 10]: D = (a-e = 43.75) IU/L
- ALT, difference in values from paracetamol treated mice [3, 10]: D = (a-e = 16.14) IU/L
- AST, difference in values from paracetamol treated mice [3, 10]: D = (a-e = 31.7) IU/L
- ACP [3, 9]: 9.69 ± 0.32**,^##(b) U/L
- ALP [3, 9]: 90.17 ± 4.16***,^#(b) IU/L
- ALT [3, 9]: 60.34 ± 4.78 (b) IU/L
- AST [3, 9]: 71.38 ± 4.63^#(b)^ IU/L
- Total Protein [3, 9]: 7.28 ± 0.14 g/dL
- ACP [3, 10]: 12.75 ± 1.43 (e) U/L
- ALP [3, 10]: 84.75 ± 5.32*,^#(e)^ IU/L
- ALT [3, 10]: 51.49 ± 4.49 (e)^ IU/L
- AST [3, 10]: 70.35 ± 6.21(e)^ IU/L
- Total Protein [3, 10]: 7.34 ± 0.15 g/dL
- hepatoprotective activity (conclusion, Tables 15 and 16) ([3]; paracetamol-induced hepatotoxicity, male and female mice): hepatoprotective activity in a dose dependent manner
- hepatoprotective activity (conclusion, Tables 17 and 18) ([4]; alcohol-induced hepatotoxicity, male and female mice): hepatoprotective activity in a dose dependent manner
- ACP [4, 11]: 19.3 ± 1 (b) U/L
- ALP [4, 11]: 106.6 ± 8 (b) ^ IU/L
- ALT [4, 11]: 85.31 ± 7.89 (b) IU/L
- AST [4, 11]: 54.81 ± 8.13 (b)^ IU/L
- Total Protein [4, 11]: 7.21 ± 0.36 g/dL
- ACP [4, 12]: 12.1±***,^# (e) U/L
- ALP [4, 12]: 79 ± 11 (e) IU/L
- ALT [4, 12]: 57.15 ± 3.46 (e) IU/L
- AST [4, 12]: 41.11 ± 6.98 (e)^ IU/L
- Total Protein [4, 12]: 6.53 ± 0.32 g/dL
- ACP, difference in values from alcohol treated mice [4, 11]: A = (a-b = 1.97) U/L
- ALP, difference in values from alcohol treated mice [4, 11]: A = (a-b = 33.4) IU/L
- ALT, difference in values from alcohol treated mice [4, 11]: A = (a-b = 3.53) IU/L
- AST, difference in values from alcohol treated mice [4, 11]: A = (a-b = 14.14) IU/L
- ACP, difference in values from alcohol treated mice [4, 12]: D = (a-e = 8.9) U/L
- ALP, difference in values from alcohol treated mice [4, 12]: D = (a-e = 61) IU/L
- ALT, difference in values from alcohol treated mice [4, 12]: D = (a-e = 31.69) IU/L
- AST, difference in values from alcohol treated mice [4, 12]: D = (a-e = 27.84) IU/L
- ACP [4, 9]: 13.3 ± 1.03 (b) U/L
- ALP [4, 9]: 90.2 ± 6.68 (b) IU/L
- ALT [4, 9]: 74.9 ± 1.66 (b) IU/L
- AST [4, 9]: 46.5 ± 3.19 (b) IU/L
- Total Protein [4, 9]: 6.68 ± 0.43 g/dL
- ACP [4, 10]: 11.6 ± 0.89 (e) U/L
- ALP [4, 10]: 83.4 ± 4.87 (e) IU/L
- ALT [4, 10]: 65.4 ± 2.59(e) IU/L
- AST [4, 10]: 39.9 ± 5.30 (e) IU/L
- Total Protein [4, 10]: 8.24 ± 0.43 g/dL
- ACP, difference in values from alcohol treated mice [4, 9]: A = (a-b = 5.3) U/L
- ALP, difference in values from alcohol treated mice [4, 9]: A = (a-b = 43.8) IU/L
- ALT, difference in values from alcohol treated mice [4, 9]: A = (a-b = 31.1) IU/L
- AST, difference in values from alcohol treated mice [4, 9]: A = (a-b = 13.5) IU/L
- ACP, difference in values from alcohol treated mice [4, 10]: D = (a-e = 7) U/L
- ALP, difference in values from alcohol treated mice [4, 10]: D = (a-e = 50.6) IU/L
- ALT, difference in values from alcohol treated mice [4, 10]: D = (a-e = 40.6) IU/L
- AST, difference in values from alcohol treated mice [4, 10]: D = (a-e = 20.8) IU/L
